Measurements: article PMC10600239, “Selective MCL-1 inhibitor ABBV-467 is efficacious in tumor models but is associated with cardiac troponin increases in patients” (Communications Medicine, 2023)
Like-named read-outs stand apart in the source and are kept apart here.

Columns and labels:
Experiment in all cases: Off-target profiling (Supplementary Data 1)
[1] = biological target: off-target receptors, ion channels, and transporters (Homo sapiens, UniProt Q07343); conditions: read-out: PDE4B2 Human - IC50; Bioprofiling 6pt Antag; cAMP
[2] = biological target: off-target receptors, ion channels, and transporters (Homo sapiens, UniProt P05771); conditions: TR-FRET Kinome, SignalChem A-1167389.7 .05(Subs Conc)
Chain of off-target receptors, ion channels, and transporters (Homo sapiens, UniProt P05771) (P05771 2-671): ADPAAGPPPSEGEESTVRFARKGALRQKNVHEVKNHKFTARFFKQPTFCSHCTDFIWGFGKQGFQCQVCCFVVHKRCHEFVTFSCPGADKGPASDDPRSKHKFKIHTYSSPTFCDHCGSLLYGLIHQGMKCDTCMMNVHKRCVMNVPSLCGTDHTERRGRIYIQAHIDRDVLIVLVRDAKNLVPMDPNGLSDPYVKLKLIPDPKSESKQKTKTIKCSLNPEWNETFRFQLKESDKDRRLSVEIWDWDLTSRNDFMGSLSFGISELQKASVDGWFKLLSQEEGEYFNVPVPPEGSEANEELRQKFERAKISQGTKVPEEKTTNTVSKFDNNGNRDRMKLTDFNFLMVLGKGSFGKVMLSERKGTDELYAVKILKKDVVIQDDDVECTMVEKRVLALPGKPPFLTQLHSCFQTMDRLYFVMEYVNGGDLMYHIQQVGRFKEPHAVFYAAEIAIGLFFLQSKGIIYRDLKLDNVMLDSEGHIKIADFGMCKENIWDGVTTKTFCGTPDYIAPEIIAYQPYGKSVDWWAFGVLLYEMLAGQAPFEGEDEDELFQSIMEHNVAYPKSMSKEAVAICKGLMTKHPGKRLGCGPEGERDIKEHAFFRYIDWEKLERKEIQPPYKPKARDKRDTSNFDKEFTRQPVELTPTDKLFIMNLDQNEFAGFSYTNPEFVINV

[3] = biological target: off-target receptors, ion channels, and transporters (Homo sapiens, UniProt P35367)
Chain of off-target receptors, ion channels, and transporters (Homo sapiens, UniProt P35367) (P35367 whole entry): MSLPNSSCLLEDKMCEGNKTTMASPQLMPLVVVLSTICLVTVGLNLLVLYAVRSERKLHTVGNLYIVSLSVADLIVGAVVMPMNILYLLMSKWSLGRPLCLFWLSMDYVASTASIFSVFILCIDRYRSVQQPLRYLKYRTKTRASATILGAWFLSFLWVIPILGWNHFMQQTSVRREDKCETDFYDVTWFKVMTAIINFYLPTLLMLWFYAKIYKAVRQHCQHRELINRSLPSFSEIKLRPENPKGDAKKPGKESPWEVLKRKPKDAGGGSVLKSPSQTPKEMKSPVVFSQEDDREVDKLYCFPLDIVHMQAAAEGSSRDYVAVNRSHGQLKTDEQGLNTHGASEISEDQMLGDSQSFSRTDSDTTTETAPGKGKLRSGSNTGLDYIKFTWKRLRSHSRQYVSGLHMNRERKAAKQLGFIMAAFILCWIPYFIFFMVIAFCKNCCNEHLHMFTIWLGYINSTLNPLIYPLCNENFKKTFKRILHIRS

[4] = biological target: off-target receptors, ion channels, and transporters (Homo sapiens, UniProt Q14432); conditions: Bioprofiling 6pt Antag; cAMP
[5] = biological target: off-target receptors, ion channels, and transporters (Homo sapiens, UniProt P15056); conditions: TR-FRET Kinome; Invitrogen A-1196442.2 .05(Subs Conc)
[6] = biological target: off-target receptors, ion channels, and transporters (Homo sapiens, UniProt Q9UHD2); conditions: TR-FRET Kinome; Invitrogen A-1167389.7 .00625(Subs Conc)
[7] = biological target: off-target receptors, ion channels, and transporters (Homo sapiens, UniProt Q13464); conditions: TR-FRET Kinome; Invitrogen A-1213250.2 .1(Subs Conc)
[8] = biological target: off-target receptors, ion channels, and transporters (Homo sapiens, UniProt Q9BYT3); conditions: TR-FRET Kinome; Invitrogen A-1167389.7 .05(Subs Conc)
[9] = biological target: off-target receptors, ion channels, and transporters (Homo sapiens, UniProt P08069); conditions: TR-FRET Kinome; Invitrogen A-1198909.2 .2(Subs Conc)
[10] = biological target: off-target receptors, ion channels, and transporters (Homo sapiens, UniProt P31749); conditions: TR-FRET Kinome; SignalChem A-1169612.6 .2(Subs Conc)
Chain of off-target receptors, ion channels, and transporters (Homo sapiens, UniProt P31749) (P31749 whole entry): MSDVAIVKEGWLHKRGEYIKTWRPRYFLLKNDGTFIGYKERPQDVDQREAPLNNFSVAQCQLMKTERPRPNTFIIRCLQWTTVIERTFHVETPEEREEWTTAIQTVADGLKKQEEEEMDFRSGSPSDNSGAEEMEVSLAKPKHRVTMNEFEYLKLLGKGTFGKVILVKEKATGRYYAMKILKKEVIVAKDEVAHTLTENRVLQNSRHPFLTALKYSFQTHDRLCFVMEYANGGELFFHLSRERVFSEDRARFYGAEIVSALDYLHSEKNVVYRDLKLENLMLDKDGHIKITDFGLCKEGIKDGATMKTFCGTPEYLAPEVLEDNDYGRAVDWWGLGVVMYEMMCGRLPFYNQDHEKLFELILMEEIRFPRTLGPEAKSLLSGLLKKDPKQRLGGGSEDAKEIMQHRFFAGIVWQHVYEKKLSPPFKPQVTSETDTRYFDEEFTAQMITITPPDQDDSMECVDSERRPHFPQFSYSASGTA

[11] = biological target: off-target receptors, ion channels, and transporters (Homo sapiens, UniProt P28223)
Chain of off-target receptors, ion channels, and transporters (Homo sapiens, UniProt P28223) (P28223 whole entry): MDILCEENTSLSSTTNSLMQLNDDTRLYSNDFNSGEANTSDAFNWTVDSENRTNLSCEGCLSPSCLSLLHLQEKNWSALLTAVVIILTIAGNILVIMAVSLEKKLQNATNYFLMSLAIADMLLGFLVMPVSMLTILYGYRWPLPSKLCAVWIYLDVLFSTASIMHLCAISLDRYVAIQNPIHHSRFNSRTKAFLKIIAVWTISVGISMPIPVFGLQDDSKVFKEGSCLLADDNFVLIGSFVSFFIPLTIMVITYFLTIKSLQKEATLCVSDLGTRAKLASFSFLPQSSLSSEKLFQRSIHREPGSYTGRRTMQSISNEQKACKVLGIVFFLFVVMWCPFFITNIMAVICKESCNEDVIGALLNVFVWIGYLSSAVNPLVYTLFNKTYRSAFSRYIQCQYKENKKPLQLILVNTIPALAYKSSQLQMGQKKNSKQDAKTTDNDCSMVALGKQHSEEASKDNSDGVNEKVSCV

[12] = biological target: off-target receptors, ion channels, and transporters (Homo sapiens, UniProt O75716); conditions: TR-FRET Kinome; Invitrogen A-1213250.2 .0125(Subs Conc)
[13] = biological target: off-target receptors, ion channels, and transporters (Homo sapiens, UniProt P07333); conditions: TR-FRET Kinome; Invitrogen A-1167389.7 .004(Subs Conc)
[14] = biological target: off-target receptors, ion channels, and transporters (Homo sapiens, UniProt P09619); conditions: TR-FRET Kinome; Invitrogen A-1169612.6 .025(Subs Conc)
Chain of off-target receptors, ion channels, and transporters (Homo sapiens, UniProt P09619) (P09619 33-1106): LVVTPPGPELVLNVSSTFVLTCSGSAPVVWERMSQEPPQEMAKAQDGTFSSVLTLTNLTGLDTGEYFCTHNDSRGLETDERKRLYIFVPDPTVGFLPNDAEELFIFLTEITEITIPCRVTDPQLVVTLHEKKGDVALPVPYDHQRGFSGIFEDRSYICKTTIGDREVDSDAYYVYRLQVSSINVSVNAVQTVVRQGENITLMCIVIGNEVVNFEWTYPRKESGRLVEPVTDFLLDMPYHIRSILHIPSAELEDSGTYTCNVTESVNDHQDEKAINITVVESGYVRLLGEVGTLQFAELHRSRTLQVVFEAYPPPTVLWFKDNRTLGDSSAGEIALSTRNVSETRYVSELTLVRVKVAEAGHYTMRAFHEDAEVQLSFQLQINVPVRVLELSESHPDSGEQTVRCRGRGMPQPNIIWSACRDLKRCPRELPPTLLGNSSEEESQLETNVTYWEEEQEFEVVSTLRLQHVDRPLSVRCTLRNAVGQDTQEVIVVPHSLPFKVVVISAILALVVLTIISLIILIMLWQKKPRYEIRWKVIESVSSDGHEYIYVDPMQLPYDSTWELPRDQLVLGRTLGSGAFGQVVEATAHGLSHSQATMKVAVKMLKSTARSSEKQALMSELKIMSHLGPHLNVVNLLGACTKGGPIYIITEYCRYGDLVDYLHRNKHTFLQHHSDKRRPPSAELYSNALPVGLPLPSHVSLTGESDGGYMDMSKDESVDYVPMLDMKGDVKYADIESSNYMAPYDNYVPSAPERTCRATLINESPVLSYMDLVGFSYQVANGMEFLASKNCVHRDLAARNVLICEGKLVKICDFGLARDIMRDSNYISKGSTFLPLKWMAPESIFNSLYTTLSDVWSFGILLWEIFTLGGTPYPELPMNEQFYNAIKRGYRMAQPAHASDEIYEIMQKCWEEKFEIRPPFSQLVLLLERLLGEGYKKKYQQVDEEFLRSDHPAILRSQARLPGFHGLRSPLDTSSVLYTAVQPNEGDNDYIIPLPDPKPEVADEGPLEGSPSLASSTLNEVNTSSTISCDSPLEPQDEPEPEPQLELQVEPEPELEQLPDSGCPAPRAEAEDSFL

[15] = biological target: off-target receptors, ion channels, and transporters (Homo sapiens, UniProt P43405); conditions: TR-FRET Kinome; Invitrogen A-1167389.7 .001(Subs Conc)
[16] = biological target: off-target receptors, ion channels, and transporters (Homo sapiens, UniProt P46734); conditions: TR-FRET Kinome; Invitrogen A-1224615.7 .2(Subs Conc)
[17] = biological target: off-target receptors, ion channels, and transporters; conditions: for EC50: Bioprofiling 6pt Ag
[18] = biological target: off-target receptors, ion channels, and transporters (Homo sapiens, UniProt Q02750); conditions: TR-FRET Kinome; Invitrogen A-1169612.6 .025(Subs Conc)
[19] = biological target: off-target receptors, ion channels, and transporters (Homo sapiens, UniProt P00519); conditions: TR-FRET Kinome; Invitrogen A-1196581.2 .007(Subs Conc)
[20] = biological target: off-target receptors, ion channels, and transporters (Homo sapiens, UniProt P08913)
Chain of off-target receptors, ion channels, and transporters (Homo sapiens, UniProt P08913) (P08913 whole entry): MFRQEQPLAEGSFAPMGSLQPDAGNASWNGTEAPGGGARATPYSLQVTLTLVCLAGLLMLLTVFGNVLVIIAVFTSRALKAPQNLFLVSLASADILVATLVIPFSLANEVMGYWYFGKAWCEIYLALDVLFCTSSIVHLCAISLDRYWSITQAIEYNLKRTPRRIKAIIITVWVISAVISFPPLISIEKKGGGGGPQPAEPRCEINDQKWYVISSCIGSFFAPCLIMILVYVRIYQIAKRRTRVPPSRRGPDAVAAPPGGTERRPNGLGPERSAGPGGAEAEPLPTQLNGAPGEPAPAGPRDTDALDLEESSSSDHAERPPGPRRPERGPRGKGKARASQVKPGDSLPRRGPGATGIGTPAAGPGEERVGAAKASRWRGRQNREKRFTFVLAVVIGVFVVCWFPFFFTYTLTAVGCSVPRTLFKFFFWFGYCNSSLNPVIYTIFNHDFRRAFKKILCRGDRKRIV

[21] = biological target: off-target receptors, ion channels, and transporters (Homo sapiens, UniProt P42681); conditions: TR-FRET Kinome; SignalChem A-1224127.6 .005(Subs Conc)
Chain of off-target receptors, ion channels, and transporters (Homo sapiens, UniProt P42681) (P42681 whole entry): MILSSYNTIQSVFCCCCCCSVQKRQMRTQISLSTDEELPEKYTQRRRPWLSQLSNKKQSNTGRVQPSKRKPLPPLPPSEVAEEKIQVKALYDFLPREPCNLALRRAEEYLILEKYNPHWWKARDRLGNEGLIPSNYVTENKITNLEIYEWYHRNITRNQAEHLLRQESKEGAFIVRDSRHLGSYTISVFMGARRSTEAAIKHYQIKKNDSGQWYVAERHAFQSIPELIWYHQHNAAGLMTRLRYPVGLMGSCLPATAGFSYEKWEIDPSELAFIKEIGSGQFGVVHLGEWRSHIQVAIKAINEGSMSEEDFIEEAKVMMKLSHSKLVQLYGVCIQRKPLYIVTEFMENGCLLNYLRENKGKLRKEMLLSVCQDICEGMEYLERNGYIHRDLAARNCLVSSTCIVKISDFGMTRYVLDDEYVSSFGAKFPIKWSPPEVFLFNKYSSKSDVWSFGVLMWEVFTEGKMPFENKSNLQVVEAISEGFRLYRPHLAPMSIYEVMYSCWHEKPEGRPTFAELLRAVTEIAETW

[22] = biological target: off-target receptors, ion channels, and transporters (Homo sapiens, UniProt O94806); conditions: TR-FRET Kinome; Invitrogen A-1169612.6 .2(Subs Conc)
[23] = biological target: off-target receptors, ion channels, and transporters (Homo sapiens, UniProt P35348)
Chain of off-target receptors, ion channels, and transporters (Homo sapiens, UniProt P35348) (P35348 whole entry): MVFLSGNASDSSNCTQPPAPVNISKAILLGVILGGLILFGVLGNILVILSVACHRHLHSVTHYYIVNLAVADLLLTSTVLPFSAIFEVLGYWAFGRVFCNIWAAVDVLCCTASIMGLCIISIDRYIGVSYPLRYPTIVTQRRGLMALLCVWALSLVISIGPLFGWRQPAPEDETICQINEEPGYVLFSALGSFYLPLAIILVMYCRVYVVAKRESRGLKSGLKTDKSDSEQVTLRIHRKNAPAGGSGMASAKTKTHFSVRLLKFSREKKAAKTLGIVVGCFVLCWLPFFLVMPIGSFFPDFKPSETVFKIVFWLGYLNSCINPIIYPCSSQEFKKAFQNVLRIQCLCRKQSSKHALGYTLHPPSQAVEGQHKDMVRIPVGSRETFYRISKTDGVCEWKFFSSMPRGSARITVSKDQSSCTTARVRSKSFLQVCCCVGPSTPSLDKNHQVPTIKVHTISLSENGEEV

[24] = biological target: off-target receptors, ion channels, and transporters (Homo sapiens, UniProt P48729); conditions: TR-FRET Kinome; Invitrogen A-1180691.2 .05(Subs Conc)
Chain of off-target receptors, ion channels, and transporters (Homo sapiens, UniProt P48729) (P48729 whole entry): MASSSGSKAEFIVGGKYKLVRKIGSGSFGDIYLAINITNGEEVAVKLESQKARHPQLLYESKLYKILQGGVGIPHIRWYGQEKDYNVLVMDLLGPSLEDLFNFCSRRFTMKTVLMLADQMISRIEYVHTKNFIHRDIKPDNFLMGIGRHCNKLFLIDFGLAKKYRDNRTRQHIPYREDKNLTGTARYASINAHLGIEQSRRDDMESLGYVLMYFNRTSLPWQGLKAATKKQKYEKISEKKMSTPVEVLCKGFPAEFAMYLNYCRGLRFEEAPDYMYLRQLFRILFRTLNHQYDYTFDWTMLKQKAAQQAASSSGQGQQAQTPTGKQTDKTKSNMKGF

## Cc1c(Cl)c2c(Cl)c(C)c1-c1c(-c3ccc(F)cc3)sc3ncnc(c13)O[C@@H](C(=O)O)Cc1cc(ccc1OCc1ccnc(-c3ccc(OC[C@H]4COCCO4)cc3)n1)OC[C@@H](CN1CCN(C)CC1)O2 [ABBV-467]
[1]
  IC50: > 10 µM
[2]; read-out: PKCbeta2 - IC50
  IC50: > 10 µM
[2]; read-out: PKCbeta2 - Ki
  Ki: > 3.9 µM
[3]; Bioprofiling 6pt Ag
  H1 CHO Human - EC50: > 10 µM
[3]; Bioprofiling 6pt Antag, Histamine
  H1 CHO Human - IC50: > 10 µM
[4]
  PDE3A Human - IC50: > 10 µM
[5]
  BRAF - IC50: > 10 µM
[6]
  TBK1 - IC50: > 10 µM
[7]
  Rock1 - IC50: > 10 µM
[8]
  STK33 - IC50: > 10 µM
[9]
  IGF1R - IC50: > 10 µM
[10]
  Akt1 - IC50: > 10 µM
[11]; Bioprofiling 6pt Ag
  5-HT2A CHO Human - EC50: > 10 µM
[11]; Bioprofiling 6pt Antag, Serotonin (5-HT)
  5-HT2A CHO Human - IC50: > 10 µM
[12]
  STK16 - IC50: > 10 µM
[13]
  CSF1R - IC50: > 10 µM
[14]
  PDGFRB - IC50: > 10 µM
[15]
  Syk - IC50: > 10 µM
[16]
  MAP2K3 - IC50: > 10 µM
[17]; read-out: CHO Hamster - EC50
  EC50: > 10 µM
[17]; read-out: Cav1.2 (L-type) ND7/23 Mouse/Rat - EC50
  EC50: > 10 µM
[17]; read-out: Cav1.2 (L-type) ND7/23 Mouse/Rat - IC50, Bioprofiling 6pt Antag, KCl
  IC50: > 10 µM
[18]
  MEK1 - IC50: > 10 µM
[19]
  Abl - IC50: > 10 µM
[20]; read-out: Alpha2A CHO Human - EC50, Bioprofiling 6pt Ag
  EC50: > 10 µM
[20]; read-out: Alpha2A CHO Human - IC50, Bioprofiling 6pt Antag, UK-14304
  IC50: > 10 µM
[21]
  TXK - IC50: > 10 µM
[22]
  Prkcn - IC50: > 10 µM
[23]; read-out: Alpha1A CHO Human - EC50, Bioprofiling 6pt Ag
  EC50: > 10 µM
[23]; read-out: Alpha1A CHO Human - IC50, Bioprofiling 6pt Antag, A-61603
  IC50: > 10 µM
[24]
  Ck1alpha1 - IC50: > 10 µM
